{"source": "patent US20260240792A1", "about": "“COMPOSITIONS FOR TREATING 5-HT2 CONDITIONS AND METHODS OF USING THE SAME” (Board of Supervisors of Louisiana State University and …, priority 2022, published 2026)", "tested_on": "rabbits", "assay": "Tear film production by Schirmer's Tear Flo Strips in rabbits", "format": "in vivo, rabbit", "description": "Each eye of each rabbit was assessed for tear film production by Schirmer's Tear Flo Strips at a 30 second interval of analysis. Tear measures were evaluated by a digital caliper to determine mm of tears collected.\n3 days post treatment at the same time initial measures were made, IOP and tear film production were re-assessed to examine if effects were sustained post 1 treatment.\n(§1) Effects of Compound 1 on Tear Production: Current IOP lowering glaucoma drugs eventually have effects on tear production resulting in dry eye conditions. Further, there are additional associations between dry eye and glaucoma, with co-incidence of the two conditions quite common. […] Selective 5-HT agonists/antagonists can reverse symptoms of dry eye-a very large ophthalmic market. The effects of Compound 1 on tear film production (see, for example, FIG. 6 panels A-D) were therefore assessed by a Schirmer's Tear Flo strip and measured using a digital micrometer caliper.\n• Rabbits were assessed for clinically clear eyes by slit lamp ophthalmic scoring. All eyes of all rabbits were normal. • Each eye of each rabbit was then assessed for initial IOP by tonometer. • Each eye of each rabbit was assessed for tear film production by Schirmer's Tear Flo Strips at a 30 second interval of analysis. Tear measures were evaluated by a digital caliper to determine mm of tears collected. • Rabbits were sorted into two groups attempting to balance IOP numbers (one higher, one lower animal per group). • Following animals were treated with 50 μL of Control ophthalmic BSS/0.5% CMC or 0.01% R-DOI HCl in ophthalmic BSS/0.5% CMC. • Any apparent behavioral changes were continuously monitored over the next 2.5 hours. • IOP determinations were made at 30 minutes, 1 hour, 2 hours and 3 hours, 5 hours, 7 hours and 24 hours-eyes were examined closely for any adverse effects during these IOP measures. • 7 hours post treatment when IOP returned to control levels tear film production was assessed (see, for example, FIG. 9).\nas §1, with “R-DOI” for “Compound 1”, “conditions” for “conditions quite”, “production” for “production (see, for example, FIG. 6 panels A-D)”", "note": "Entries after “also recorded” stand apart in the source; their conditions may differ."}
{"smiles": "COc1cc(C[C@@H](C)N)c(OC)cc1I", "note": "[R-DOI, (R)-1-(2,5-dimethoxy-4-iodophenyl)-2-aminopropane]", "values": [{"measurement": "average increase in tear film production", "setting": "0.01% single dose, 7 h post treatment", "value": 2.27, "unit": "mm"}, {"measurement": "tear production as measured by Schirmer's test", "setting": "topical ocular dose", "value": "increased tear production relative to initial and control treatment; also recorded: significant increase in tear production"}]}
